# Data as given in paper PMC7615676, “Short-course combination treatment for experimental chronic Chagas disease” (Science translational medicine, 2023).
# “And” between values parts separate entries of the source, which are not always exact repeats. Equal entries are not always repeated. Where two headings read alike, the source gives them in different places.
# Legend:
# [1] = tested on: chronic T. cruzi infection (CL Brener) in BALB/c mice; experiment: bioluminescent mouse model of chronic Chagas disease; assay type: in vivo, Trypanosoma cruzi; conditions: 5 days
# HepG2 cells = experiment: Seahorse MST (mitochondrial stress test), oxygen consumption rate; assay type: cell-based; conditions: lowest concentration reducing OCR >15% vs DMSO
# Method: To measure the Oxygen Consumption Rate (OCR) in cells following compound treatment, the Seahorse XFe96 Extracellular Flux Analyser (Agilent) was used ([69]). HepG2 cells were maintained in DMEM medium (Invitrogen #11966-025) supplemented with 10 mM galactose, 1 mM sodium pyruvate, 5 mM HEPES, 2 mM GlutaMAX, 10% fetal bovine serum and 50 μg/ml gentamycin. Cells were maintained in a 37 °C, 5% CO2 humidified atmosphere. The measurement of OCR was performed as previously described ([70], [71]) with minor modifications. Briefly, HepG2 cells were seeded in an XF96-well plate at 14000 cells per 100 μl cell culture medium per well and incubated in a 37 °C, 5% CO2 humidified atmosphere for 24 hours. Following incubation, the culture medium was replaced with 175 μl pre-warmed, serum-free XF base assay medium (Agilent), supplemented with 2 mM L-glutamine, 1 mM sodium pyruvate and 10 mM galactose (pH 7.4) and incubated at 37 °C for one hour. Test compounds (compound 3 and 4) were maintained in DMSO and a four-point dose response (final concentrations 10, 20, 40 and 80 μM), plus 0.4% DMSO control, were diluted to 8× concentration in XF assay medium and 25 μL was loaded into Port A of the XF Assay Cartridge. The mito-stress test components oligomycin (1 μM final), carbonyl cyanide-4-(trifluoromethoxy)-phenylhydrazon [FCCP] […]
# [2] = tested on: T. cruzi epimastigotes bearing mutations in cytochrome b; experiment: epimastigote drug sensitivity assay, cytochrome b mutant / resistant lines; assay type: cell-based, Trypanosoma cruzi; conditions: for EC50: Trypanosoma cruzi; for fold change from WT, L197I: compound 3-resistant line (L197I); for fold change from WT, F222L: compound 5-resistant line (F222L)
# Method: T. cruzi epimastigotes from the Silvio strain (MHOM/BR/78/Silvio; clone X10/7A) were grown at 28°C in RTH/FBS medium ([80]).
# T. cruzi epimastigote assays carried out as described previously ([43]).
# Compound-resistant cell lines were generated by subculturing clones of wild-type T. cruzi epimastigotes in the continuous presence of compound 3 or compound 5. Starting at sublethal concentrations, drug concentrations in 3 independent cultures were increased in a stepwise manner, usually by 2-fold. When parasites were able to survive and grow in compound concentrations equivalent to >30-fold their established EC50 value, they were cloned by limiting dilution in the presence of compound. Three independent clones were selected from each compound for further study.
# [3] = bioanalysis of blood samples from in vivo efficacy studies; parameters: species or system BALB/c mice; conditions: for AUC0-7h Day 1, unbound concentrations of 4 / AUC0-7h Day 5, unbound concentrations of 4 / Cmax Day 1, unbound concentrations of 4 / Cmax Day 5, unbound concentrations of 4 / AUC0-7h Day 1, unbound concentrations of BNZ / AUC0-7h Day 5, unbound concentrations of BNZ / Cmax Day 1, unbound concentrations of BNZ / Cmax Day 5, unbound concentrations of BNZ: 5 days; for AUC0-7h Day 1, unbound concentrations of BNZ / AUC0-7h Day 5, unbound concentrations of BNZ / Cmax Day 1, unbound concentrations of BNZ / Cmax Day 5, unbound concentrations of BNZ: 30mg/kg qd; for AUC(0-t) / Cmax: BALB/c, mouse, whole blood, po
# Method: Following the first daily dose on day 1 and last day of treatment, serial blood samples were taken by the tail vein from all treated mice pre-dose, then 30 minutes, 1, 2, 4, and 8 hours post-dose, mixed with two volumes of distilled water and analyzed for test compound. Quantification of compounds was performed by means of LC/MSMS and exposure parameters namely Cmax and AUClast were estimated using Phoenix 64 (Pharsight Certara).
# [4] = tested on: isolated rat liver mitochondria; experiment: calcium loading capacity (CLC) in rat liver mitochondria; assay type: biochemical; conditions: minimum effective concentration
# Method: The CLC of freshly isolated liver mitochondria was determined as previously described ([70]). Briefly, mitochondria were suspended at 0.2 mg/ml in incubation buffer B, supplemented with 100 μM arsenazo III, 2.5 μM rotenone and 1 μg/ml oligomycin in each well of a 96 well microplate (control and treated mitochondria were assayed simultaneously) and absorbance measured every 2 seconds at 650 nm in a FlexStation3 microplate reader (Molecular Devices, Sunnyvale, CA, USA). After approximately 1 minute of reading, Ca^2+ was added (0.5-1 μmol/ mg mitochondrial protein) followed by the addition of 10 mM succinate as the mitochondrial substrate. The CLC was calculated as the difference in optical density (ΔOD) between the point at which mitochondria were energized and the point where mitochondrial permeability transition was triggered (i.e., the lowest OD reading before calcium release via MPT).
# The concentration-response relationship was modelled using a robust fit of a cubic polynomial regression ([74], [75]). The fitted curves were then used to calculate the Minimum Effective Concentration (MEC). The MEC was defined as the lowest concentration where the fitted curve exceeded 3 standard deviations (SD) around the DMSO mean response. SD was estimated from the deviations of DMSO and compound treated wells around the fitted means, using a robust estimator based on Gini’s mean difference ([76]).
# [5] = target: T1, Human complex III (bc1), mitochondria from THP-1 (Homo sapiens, UniProt P00156); experiment: human complex III inhibition assay; assay type: biochemical
# T1 construct: Preparation of mitochondria from a human cell line (THP-1); endogenous in cells; host or cells: THP-1 (human) mitochondria
# Method: Preparation of mitochondria from a human cell line (THP-1) was performed following published procedure ([72]). The protocol for the assay has been described in ([73]).
# [6] = 4 10 mg/kg bid + BNZ 30mg/kg qd
# [7] = 4 30 mg/kg bid + BNZ 30mg/kg qd
# [8] = dosing group BNZ+ 3 (50mg/kg bid)
structure (smiles),measurement,setting,value
"COc1ccc(-c2c(C)[nH]c3nc(N)nc(C)c23)c(OC)c1 [Compound 4, 5-(2,4-Dimethoxyphenyl)-4,6-dimethyl-7H-pyrrolo[2,3-d]pyrimidin-2-amine]",95% confidence interval for no-relapse,"[1]; Fig. 6, compound 4 50 mg/kg bid",0.01 − 0.58
same,"Seahorse MST, HepG2, LEC",HepG2 cells,>80 µM
same,EC50,[2]; read-out: EC50 F222L,6.38 ± 0.436 µM
same,EC50,[2]; read-out: EC50 L197I,0.432 ± 0.015 µM
same,"fold change from WT, L197I",[2],5 fold
same,"fold change from WT, F222L",[2],73 fold
same,"AUC0-7h Day 1, unbound concentrations of 4",[3]; [6],2419 ± 453 ng·h/mL
same,"AUC0-7h Day 5, unbound concentrations of 4",[3]; [6],1488 ± 292 ng·h/mL
same,"Cmax Day 1, unbound concentrations of 4",[3]; [6],496 ± 82 ng/mL
same,"Cmax Day 5, unbound concentrations of 4",[3]; [6],650 ± 203 ng/mL
same,"AUC0-7h Day 1, unbound concentrations of 4",[3]; [7],10441 ± 1994 ng·h/mL
same,"AUC0-7h Day 5, unbound concentrations of 4",[3]; [7],6773 ± 311 ng·h/mL
same,"Cmax Day 1, unbound concentrations of 4",[3]; [7],1931 ± 261 ng/mL
same,"Cmax Day 5, unbound concentrations of 4",[3]; [7],1577 ± 161 ng/mL
same,"AUC0-7h Day 1, unbound concentrations of 4",[3]; 4 50mg/kg bid alone,16176 ± 776 ng·h/mL
same,"AUC0-7h Day 5, unbound concentrations of 4",[3]; 4 50mg/kg bid alone,17378 ± 1605 ng·h/mL
same,"Cmax Day 1, unbound concentrations of 4",[3]; 4 50mg/kg bid alone,2934 ± 294 ng/mL
same,"Cmax Day 5, unbound concentrations of 4",[3]; 4 50mg/kg bid alone,3736 ± 628 ng/mL
same,"Calcium loading capacity, rat mitochondria, MEC",[4],>200 µM
same,EC50,[5],> 200 µM
same,"% inhibition of human bc1, individual replicates",[5]; 0.09 µM,-12.21% and 6.38%
same,inhibition at 0.09 µM,[5]; 0.09 µM,-2.92%
same,"% inhibition of human bc1, individual replicates",[5]; 0.27 µM,-0.73% and 8.86% and -14.09%
same,inhibition at 0.27 µM,[5]; 0.27 µM,-1.99%
same,"% inhibition of human bc1, individual replicates",[5]; 0.82 µM,-0.42% and -1.05% and -3.03%
same,inhibition at 0.82 µM,[5]; 0.82 µM,-1.5%
same,"% inhibition of human bc1, individual replicates",[5]; 2.47 µM,-7.80% and 0.71% and -1.55%
same,inhibition at 2.47 µM,[5]; 2.47 µM,-2.88%
same,"% inhibition of human bc1, individual replicates",[5]; 7.41 µM,20.02% and -3.97% and 5.85%
same,inhibition at 7.41 µM,[5]; 7.41 µM,7.3%
same,"% inhibition of human bc1, individual replicates",[5]; 22.22 µM,11.11% and -1.32% and 9.84%
same,inhibition at 22.22 µM,[5]; 22.22 µM,6.55%
same,"% inhibition of human bc1, individual replicates",[5]; 66.67 µM,21.01% and 18.54% and -10.78%
same,inhibition at 66.67 µM,[5]; 66.67 µM,9.59%
same,"% inhibition of human bc1, individual replicates",[5]; 200.00 µM,5.17% and 18.62% and -0.60%
same,inhibition at 200 µM,"[5]; 200.00 µM, read-out: Average % inhibition of human bc1",7.73%
"O=C(Cn1ccnc1[N+](=O)[O-])NCc1ccccc1 [Benznidazole, reference compound]",95% confidence interval for no-relapse,"[1]; Fig. 3, BNZ 30 mg/kg qd, Adjusted Wald",0.01 − 0.58
same,95% confidence interval for no-relapse,"[1]; Fig. 6, BNZ 30 mg/kg qd",0.06 − 0.8
same,"AUC0-7h Day 1, unbound concentrations of BNZ",[3]; dosing group BNZ alone,18788 ± 3214 ng·h/mL
same,"AUC0-7h Day 5, unbound concentrations of BNZ",[3]; dosing group BNZ alone,12583 ± 1812 ng·h/mL
same,"Cmax Day 1, unbound concentrations of BNZ",[3]; dosing group BNZ alone,6928 ± 1302 ng/mL
same,"Cmax Day 5, unbound concentrations of BNZ",[3]; dosing group BNZ alone,5230 ± 1373 ng/mL
same,"AUC0-7h Day 1, unbound concentrations of BNZ",[3]; [8],15881 ± 4211 ng·h/mL
same,"AUC0-7h Day 5, unbound concentrations of BNZ",[3]; [8],11350 ± 4513 ng·h/mL
same,"Cmax Day 1, unbound concentrations of BNZ",[3]; [8],5188 ± 1385 ng/mL
same,"Cmax Day 5, unbound concentrations of BNZ",[3]; [8],3725 ± 1302 ng/mL
"COc1cc(F)ccc1-c1c(C)[nH]c2nc(N)nc(C)c12 [Compound 2, 5-(4-Fluoro-2-methoxyphenyl)-4,6-dimethyl-7H-pyrrolo[2,3-d]pyrimidin-2-amine]",EC50,[2]; read-out: EC50 F222L,3.62 ± 0.322 µM
same,EC50,[2]; read-out: EC50 L197I,0.117 ± 0.005 µM
same,"fold change from WT, L197I",[2],4 fold
same,"fold change from WT, F222L",[2],109 fold
same,AUC(0-t),"[3]; 50 mg/kg, compound 2 50mg/kg bid, 21-day study, read-out: AUC0-7h Day 1",5280 ± 1230 ng·h/mL
same,AUC(0-t),"[3]; 50 mg/kg, compound 2 50mg/kg bid, 21-day study, read-out: AUC0-7h Day 21",8860 ± 1210 ng·h/mL
same,Cmax,"[3]; 50 mg/kg, compound 2 50mg/kg bid, 21-day study, read-out: Cmax Day 1",870 ± 196 ng/mL
same,Cmax,"[3]; 50 mg/kg, compound 2 50mg/kg bid, 21-day study, read-out: Cmax Day 21",1470 ± 202 ng/mL
same,AUC(0-t),"[3]; 100 mg/kg, compound 2 100mg/kg bid (changed to qd after day 1), 10-day study, read-out: AUC0-7h Day 1",6270 ± 1140 ng·h/mL
same,AUC(0-t),"[3]; 100 mg/kg, compound 2 100mg/kg bid (changed to qd after day 1), 10-day study, read-out: AUC0-7h Day 10",11500 ± 1950 ng·h/mL
same,Cmax,"[3]; 100 mg/kg, compound 2 100mg/kg bid (changed to qd after day 1), 10-day study, read-out: Cmax Day 1",1250 ± 236 ng/mL
same,Cmax,"[3]; 100 mg/kg, compound 2 100mg/kg bid (changed to qd after day 1), 10-day study, read-out: Cmax Day 10",2260 ± 315 ng/mL
